Patent US20220331467A1, “HALAL DISINFECTANT LIQUID” (priority 2019, published 2022)

Key:
eye = conditions: OECD TG 405; cited from earlier work
rabbit skin = test: Skin irritability test using rabbits (OECD 404); type: in vivo; conditions: 0.5 mL patch, 4 hours exposure
Method: To study the skin irritability and corrosiveness of a chlorous acid aqueous solution formulation, a skin irritability test was conducted using three female Kbl:NZW rabbits. The irritability reaction was compared by setting a three rabbit sodium hypochlorite formulation treatment group as a comparative control group. 0.5 mL of test substance was applied homogenously to a lint patch and exposed 4 hours to the skin on the back of the rabbits. […] In addition, the body weight before administration and at the end of observation was measured.
For administration, 0.5 mL of test substance was spread homogeneously on the lint surface of a 2.45×2.45 cm patch (lint cloth, Hasegawa Menkou) by using a MICROMAN (model M1000, Gilson), and then applied to the back skin of animals using a paper adhesive tape (KENZ). Furthermore, the entire treatment site was covered with a large lint cloth (Hasegawa Menkou), which was secured with an adhesive bandage (New-HALE, Hasegawa Menkou). Exposure time was 4 hours. The patch was removed after completion of exposure. […]
Erythema, eschar formation, and edema at sites of administration were observed 1, 24, 48, and 72 hours after patch removal, and scored in accordance with determination criteria for skin reactions (Draize, 1959). […]
The body weight was measured on the administration date (before administration) and date of completion of observation for all tested animals. […]

guinea pig skin = conditions: female, Slc:Hartley, in vivo
Method: To find information related to the skin sensitization of a chlorous acid aqueous solution formulation, a Maximization Test was conducted using 20 female Slc:Hartley guinea pigs (SPF). […] In the test substance treatment group, 0.2 w/v % test substance solution (medium: distilled water) was intradermally injected in the first sensitization treatment using 10 animals, and a closed patch of 100% test substance solution (undiluted solution) was applied for 48 hours in the second sensitization treatment. A closed patch of 20 w/v % test substance solution was applied for 24 hours for elicitation treatment.
The prepared administered solutions (1) to (3) (section 14.9.1) of each test group were intradermally injected at 0.1 mL each to correspond to administration sites (1) to (3) in image 1.
The chest and back (image 1, site (4)) of an animal were shaved using an electric clipper and shaver on day 7. Open patch of 10% sodium dodecyl sulfate mixture (section 14.9.2) was applied thinly and homogeneously at the same site to a test substance treatment group and negative control group. […]
The body weight was measured before starting sensitization treatment (day 0) and the day of completion of observation of elicitation treatment sites (day 25). […]
The skin sensitization rate is calculated as [(number of sensitization positive animals/number of animals used)×100].

| SMILES | Severe injury to eye or eye irritability (GHS category) (eye) | GHS hazard category of dermal irritation/corrosion (rabbit skin) | Number of animals showing the sign: General condition, No abnormality observed (guinea pig skin) | Number of positive animal (guinea pig skin) |
| --- | --- | --- | --- | --- |
| CCO [Ethanol 95 v/v %, Ethanol] | Category 2B |  |  |  |
| OCl [Sodium hypochlorite, sodium hypochlorite] | Category 1 | Category 1 |  |  |
| CCCCCCC(C=O)=Cc1ccccc1 [HCA, α-Hexylcinnamaldehyde] |  |  | 0 | 5 |
